Patent US7449595B2, “Nitrosated and nitrosylated prostaglandins, compositions and methods of use” (NitroMed, Inc., priority 1999, dated 2008)

What was measured:
[1] = tested on: human corpus cavernosum tissue; assay: Measurement of cGMP in human corpus cavernosum tissues (ELISA); format: cell-based; conditions: 5 min incubation after 30 μM Zaprinast and 100 μM IBMX, n=5
Procedure: Human corpus cavernosum specimens were obtained from impotent men at the time of penile prosthesis insertion. Tissues were maintained at 4-6° C. in M-400 solution (composition per 100 ml: mannitol, 4.19 g; KH2PO4, 0.205 g; K2HPO4.3H2O, 0.97 g; KCl, 0.112 g; NaHCO3, 0.084 g) until used. Corpus cavernosum tissues were typically used between 2 and 16 hours from extraction. Measurement of cyclic GMP in corpus cavernosal tissues was carried out as follows. Corpus cavernosal tissue strips (3×3×7 mm) were immersed in a 8 ml organ chamber containing physiological salt solution, maintained at 37° C. and aerated with 5% CO2/95% air, pH 7.4. […] Tissues were incubated for another 5 minutes then immediately frozen in liquid nitrogen and stored at -80° C. until extraction for cyclic nucleotide assay. Tissues were extracted by homogenization in 6% trichloroacetic acid followed by ether (H2O-saturated) extraction and lyophilization. cGMP levels were determined by ELISA using a kit from Cayman Chemical (Ann Arbor, Mich.). Protein concentration in the corpus cavernosum tissue was determined using the Bio-Rad Protein Assay Kit microtiter plate assay procedure (Bio-Rad, Hercules, Calif.) with bovine serum albumin as the standard. The measured concentrations of cGMP in picomoles were normalized based on milligrams of protein to provide a valid comparison between each tissue sample. […]

[2] = tested on: human corpus cavernosum tissue; assay: Concentration response relaxation studies of human corpus cavernosum tissue strips contracted with phenylephrine; format: cell-based; conditions: compound alone, strips contracted with 0.5 μM phenylephrine, relaxation as % of 0.1 mM papaverine, n=5, read-out: EC50 (concentration required to obtain the half-maximum response) for relaxation
Procedure: Human corpus cavernosum specimens were obtained from impotent men at the time of penile prosthesis insertion. Tissues were maintained at 4-6° C. in M-400 solution (composition per 100 ml: mannitol, 4.19 g; KH2PO4, 0.205 g; K2HPO4.3H2O, 0.97 g; KCl, 0.112 g; NaHCO3, 0.084 g) until used. Corpus cavernosum tissues were typically used between 2 and 16 hours from extraction.
Concentration response relaxation studies of human corpus cavernosum tissues were conducted as follows. Corpus cavernosal tissue strips (3×3×7 mm), obtained as described in Example 2, were immersed in a 8 ml organ chamber containing physiological salt solution, maintained at 37° C. and aerated with 5% CO2/95% air, pH 7.4. Each strip was incrementally stretched to optimal isometric tension, as determined by maximal contractile responses to 1 μM phenylephrine. Relaxant responses were evaluated by adding increasing cumulative concentrations of compounds to the strips contracted with 0.5 μM phenylephrine. Relaxation responses were expressed as a percentage of total relaxation induced by the addition of 0.1 mM papaverine hydrochloride (total loss of tone) at the end of the experiment. In FIGS. 2 and 3, the data are expressed as mean±standard error. Statistical analysis were conducted using a two-factor ANOVA statistical analysis using StatView software for Apple computers.
The tissues were prepared according to Example 4. […]

Compound: N[C@@H](CCC(=O)N[C@@H](CSN=O)C(=O)NCC(=O)O)C(=O)O [GS-NO, N-(N-L-γ-glutamyl-S-Nitroso-L-cysteinyl)glycine]
- cGMP production compared to control ([1]; 100 μM GS-NO alone): increased amounts of cGMP
- EC50 [2]: 2.56 ± 1.3 µM

Compound: CCCCC[C@H](O)/C=C/[C@H]1[C@H](O)CC(=O)[C@@H]1CCCCCCC(=O)O [PGE1, 7-(5-((1E)(3S)-3-hydroxyoct-1-enyl)(1R,4R,5R)-4-(hydroxy-2-oxocyclopentyl)heptanoic acid)]
- cGMP production compared to control ([1]; 1 μM PGE1 alone): did not produce a significant amount of cGMP
- EC50 [2]: 0.083 ± 0.05 µM
